In brackets after ≈: the same amount, converted by molar mass.
Assays:
[1] = system: E. coli MB5746 RpoZ (RNAP ω subunit) Δ35–91 (frameshift) mutant; assay: Broth microdilution MIC on MRL-436-resistant mutant; type: cell-based; conditions: RpoZ Δ35–91 (frameshift) mutant of MB5746
yeast invertase = yeast invertase (Saccharomyces cerevisiae, UniProt P00724); conditions: compound at 10 μM against 5μM invertase
[2] = system: E. coli D21f2tolC Rif^R-D516V (rfa tolC rpoB-D516V); assay: Broth microdilution MIC; type: cell-based; conditions: Escherichia coli
[3] = system: E. coli D21f2tolC (rfa tolC); assay: Broth microdilution MIC; type: cell-based; conditions: Escherichia coli
[4] = system: E. coli MB5746 RpoC (RNAP β′ subunit) D622G mutant; assay: Broth microdilution MIC on MRL-436-resistant mutant; type: cell-based; conditions: RpoC D622G mutant of MB5746
RNAP = RNAP (Escherichia coli, UniProt P0A800+P0A8T7+P0A8V2); assay: biochemical; parameters: species or system E. coli
[5] = system: E. coli MB5746 RpoZ (RNAP ω subunit) Δ13–91 (frameshift) mutant; assay: Broth microdilution MIC on MRL-436-resistant mutant; type: cell-based; conditions: RpoZ Δ13–91 (frameshift) mutant of MB5746
[6] = system: E. coli MB5746 (lpxC tolC); assay: Broth microdilution MIC; type: cell-based; conditions: Escherichia coli
[7] = system: E. coli D21f2tolC Rif^R-H526D (rfa tolC rpoB-H526D); assay: Broth microdilution MIC; type: cell-based; conditions: Escherichia coli
[8] = system: E. coli MB5746 RpoZ (RNAP ω subunit) Δ1–91 (deletion); assay: Broth microdilution MIC on constructed ΔrpoZ strain; type: cell-based; conditions: RpoZ Δ1–91 (deletion) of MB5746
[9] = system: E. coli MB5746 RpoZ (RNAP ω subunit) Δ23–91 (frameshift) mutant; assay: Broth microdilution MIC on MRL-436-resistant mutant; type: cell-based; conditions: RpoZ Δ23–91 (frameshift) mutant of MB5746
[S531L]β-RNAP = [S531L]β-RNAP (Escherichia coli, UniProt P0A800+P0A8T7+P0A8V2, S531L); assay: biochemical; parameters: species or system E. coli
[10] = target: RNAP (wild-type, co-expressed) (Escherichia coli, UniProt P0A800+P0A8T7+P0A8V2); assay: biochemical; parameters: species or system E. coli
[D622G]β′-RNAP = Fluorescence-detected RNAP inhibition assay; type: biochemical, E. coli; conditions: enzyme: [D622G]β′-RNAP vs RNAP (co-expressed)
[11] = system: E. coli MB5746 RpoZ (RNAP ω subunit) Δ24–91 (frameshift) mutant; assay: Broth microdilution MIC on MRL-436-resistant mutant; type: cell-based; conditions: RpoZ Δ24–91 (frameshift) mutant of MB5746
[D516V]β-RNAP = [D516V]β-RNAP (Escherichia coli, UniProt P0A800+P0A8T7+P0A8V2, D516V); assay: biochemical; parameters: species or system E. coli
[12] = system: E. coli D21f2tolC Rif^R-S531L (rfa tolC rpoB-S531L); assay: Broth microdilution MIC; type: cell-based; conditions: Escherichia coli
[H526D]β-RNAP = [H526D]β-RNAP (Escherichia coli, UniProt P0A800+P0A8T7+P0A8V2, H526D); assay: biochemical; parameters: species or system E. coli
Δω RNAP = type: biochemical, E. coli; conditions: enzyme: Δω RNAP vs RNAP (reconstituted)
[13] = system: E. coli MB5746 RpoZ (RNAP ω subunit) Δ21–91 (frameshift) mutant; assay: Broth microdilution MIC on MRL-436-resistant mutant; type: cell-based; conditions: RpoZ Δ21–91 (frameshift) mutant of MB5746
E. coli RNAP core enzyme = E. coli RNAP core enzyme (Escherichia coli, UniProt P0A800+P0A8T7+P0A8V2); assay: AS-MS; type: binding
RNAP (reconstituted) = RNAP (reconstituted) (Escherichia coli, UniProt P0A800+P0A8T7+P0A8V2); assay: biochemical; type: biochemical, E. coli

CO[C@H]1/C=C/O[C@@]2(C)Oc3c(C)c(O)c4c(O)c(c(/C=N/N5CCN(C)CC5)c(O)c4c3C2=O)NC(=O)/C(C)=C\C=C\[C@H](C)[C@H](O)[C@@H](C)[C@@H](O)[C@@H](C)[C@H](OC(C)=O)[C@@H]1C [Rif, rifampin]
resistance level (MIC/MICwild-type) [1]: 1 | AS-MS signal against invertase (selectivity counter-screen) (yeast invertase): did not show an AS-MS signal | MIC [2]: 32 µg/mL (≈ 38.9 µM) | MIC [3]: 0.5 µg/mL (≈ 0.608 µM) | resistance level (MIC/MICwild-type) [4]: 1 | IC50 (RNAP): 0.02 µM | resistance level (MIC/MICwild-type) [5]: 1 | MIC [6]: 0.5 µg/mL (≈ 0.608 µM) | MIC [7]: 128 µg/mL (≈ 156 µM) | resistance level (MIC/MICwild-type) [8]: 1 | resistance level (MIC/MICwild-type) [9]: 1 | IC50 ([S531L]β-RNAP): 80 µM | IC50 [10]: 0.03 µM | IC50 ratio (IC50/IC50wild-type) ([10]; enzyme: RNAP (co-expressed)): 1 | IC50 ratio (IC50/IC50wild-type) ([D622G]β′-RNAP): 1 | resistance level (MIC/MICwild-type) [11]: 1 | IC50 ([D516V]β-RNAP): 70 µM | MIC [12]: 64 µg/mL (≈ 77.8 µM) | IC50 ([H526D]β-RNAP): > 100 µM | IC50 ratio (IC50/IC50wild-type) (Δω RNAP): 0.5 | resistance level (MIC/MICwild-type) [13]: 1 | Kd (E. coli RNAP core enzyme): < 2 µM | IC50 (RNAP (reconstituted)): 0.04 µM | IC50 ratio (IC50/IC50wild-type) (RNAP (reconstituted); enzyme: RNAP (reconstituted)): 1

Source: publication PMC5800494 (ACS chemical biology, 2017)
